Source: publication PMC3024946, “Hydroxyproline-containing collagen analogs trigger the release and activation of collagen-sequestered proMMP-2 by competition with prodomain-derived peptide P33-42” (Fibrogenesis & Tissue Repair, 2011)
“Also recorded” adds a separate entry of the source.

Molecular target: T1, proMMP-2 / CI (Homo sapiens, UniProt P08253)
T1 construct: prodomain-containing proMMP-2 or proMMP-9; purchased Invitek
T1 sequence (P08253 30-660 limits assumed): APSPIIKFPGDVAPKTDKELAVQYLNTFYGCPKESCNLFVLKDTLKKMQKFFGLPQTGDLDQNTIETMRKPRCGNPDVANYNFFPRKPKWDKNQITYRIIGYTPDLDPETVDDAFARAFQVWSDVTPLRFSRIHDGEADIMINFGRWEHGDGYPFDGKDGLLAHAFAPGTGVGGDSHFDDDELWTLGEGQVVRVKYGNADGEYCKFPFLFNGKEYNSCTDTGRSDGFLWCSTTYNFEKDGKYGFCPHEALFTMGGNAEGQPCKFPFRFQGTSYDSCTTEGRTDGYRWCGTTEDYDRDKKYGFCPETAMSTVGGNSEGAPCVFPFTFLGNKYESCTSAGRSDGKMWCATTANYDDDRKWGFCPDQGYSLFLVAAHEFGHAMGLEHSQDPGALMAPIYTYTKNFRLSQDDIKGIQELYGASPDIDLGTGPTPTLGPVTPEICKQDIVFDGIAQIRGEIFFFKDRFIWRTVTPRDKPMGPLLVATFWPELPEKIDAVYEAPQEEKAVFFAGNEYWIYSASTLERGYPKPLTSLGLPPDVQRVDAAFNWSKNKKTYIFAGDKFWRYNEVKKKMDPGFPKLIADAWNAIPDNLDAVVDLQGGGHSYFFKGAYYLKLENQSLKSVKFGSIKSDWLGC
Assay: SPR, competition of proMMP-2 binding to CI, MMP activity buffer with Ro 28-2653
Settings: for competition with proMMP-2 binding to CI: SPR, MMP activity buffer with Ro 28-2653; for Kd for binding to CI in the presence of 10-fold molar excess of competitor: proMMP-2 100 nM, MMP activity buffer, 1 μM Ro 28-2653, 25°C, mean ± SD, at least three experiments
Description: Sensor chip preparations and SPR measurements were performed using a BiacoreX device and the Bia-evaluation software (version 3.2; Biacore, Uppsala, Sweden). The pepsin-resistant triple-helical part of human fibrillar CI (100 μg/ml) in 10 mM acetate coupling buffer, pH 4.8, was immobilized to a dextran matrix-sensor chip at a flow rate of 5 μl/min, resulting in 5,500 resonance units from CI covalently linked via its primary amino groups. The control flow cell was prepared using the coupling buffer without CI. Surfaces were activated and blocked as described previously. Immediately after thawing, pro- and actMMP-2 and pro- and actMMP-9 were diluted to 100 to 250 nM in MMP activity buffer or in PBS and 0.05% (vol/vol) Tween 20. For SPR measurements, flow rates were 10 μl/min at 25°C, and equilibrium was typically reached after 30 to 60 s. The effects of (GPO)10, GAP, (POG)5, (GPP)10 and P33-42 on MMP-2 and MMP-9 binding to CI and their enzymatic activity were determined by adding the binding competitors to the (pro- and act)MMP-2 and MMP-9 solution in 10- to 150-fold molar excesses. Effects independent of MMP-2 and MMP-9 activity were monitored in the presence of Ro 28-2653 (1 μM) during SPR analysis. The gelatinase inhibitor Ro 28-2653 was a generous gift from H.-W. Krell (Roche, Grenzach-Wyhlen, Germany). Sensor surfaces were regenerated with 10 mM glycine, pH 2.3, for 1 min between runs, and sensor chips were used up to 25 times. Kinetic parameters were analyzed using the 1:1 binding model with drifting baseline and subtraction of the control flow cell binding from sensorgrams obtained with immobilized CI. Binding constants (Kd) were calculated from the association (ka) and dissociation rates (kd) obtained from individual binding curves at different concentrations. Individual drifts of the resonance signal were fitted locally, and χ^2 values of 0.2% to 1.0% of the maximum resonance value were considered good fits.

Row | Kd for binding to CI in the presence of 10-fold molar excess of competitor [nM] | reduction of affinity / increase in Kd of binding to CI (proMMP-2, 10-fold molar excess of competitor) | Substance | competition with proMMP-2 binding to CI
1 | 155.5 ± 50.2 |  | H-Gly-Cys-Hyp-(Gly-Pro-Hyp)10-Gly-Cys-Hyp-Gly-NH2 [(GPO)10, triple-helical Hyp-containing collagen analog] | comparable to that of (POG)5; also recorded: effectively compete proMMP-2 binding to CI
2 | 42.1 ± 39.1 | about a sixfold increase | H-Gly-Cys-Pro-(Gly-Pro-Pro)10-Gly-Cys-Pro-Gly-NH2 [(GPP)10, Triple-helical Gly-Pro-Pro (GPP)10, devoid of Hyp] | much less efficient in competing with proMMP-2 binding to CI than the nonhelical (POG)5
